In ChEMBL document CHEMBL1743141, “Membrane transporters in drug development” (Nat Rev Drug Discov, 2010):

Legend:
Format in all cases: ADME
[1] = target: T1, ATP-binding cassette sub-family C member 3 (Homo sapiens, UniProt O15438); assay: Inhibitors of transporters of clinical importance in the absorption and disposition of drugs, MPR3
[2] = target: T2, ATP-binding cassette sub-family C member 2 (Homo sapiens, UniProt Q92887); assay: Inhibitors of transporters of clinical importance in the absorption and disposition of drugs, MRP2
[3] = target: T3, Broad substrate specificity ATP-binding cassette transporter ABCG2 (Homo sapiens, UniProt Q9UNQ0); assay: Inhibitors of transporters of clinical importance in the absorption and disposition of drugs, BCRP
T3 sequence (Q9UNQ0 whole entry): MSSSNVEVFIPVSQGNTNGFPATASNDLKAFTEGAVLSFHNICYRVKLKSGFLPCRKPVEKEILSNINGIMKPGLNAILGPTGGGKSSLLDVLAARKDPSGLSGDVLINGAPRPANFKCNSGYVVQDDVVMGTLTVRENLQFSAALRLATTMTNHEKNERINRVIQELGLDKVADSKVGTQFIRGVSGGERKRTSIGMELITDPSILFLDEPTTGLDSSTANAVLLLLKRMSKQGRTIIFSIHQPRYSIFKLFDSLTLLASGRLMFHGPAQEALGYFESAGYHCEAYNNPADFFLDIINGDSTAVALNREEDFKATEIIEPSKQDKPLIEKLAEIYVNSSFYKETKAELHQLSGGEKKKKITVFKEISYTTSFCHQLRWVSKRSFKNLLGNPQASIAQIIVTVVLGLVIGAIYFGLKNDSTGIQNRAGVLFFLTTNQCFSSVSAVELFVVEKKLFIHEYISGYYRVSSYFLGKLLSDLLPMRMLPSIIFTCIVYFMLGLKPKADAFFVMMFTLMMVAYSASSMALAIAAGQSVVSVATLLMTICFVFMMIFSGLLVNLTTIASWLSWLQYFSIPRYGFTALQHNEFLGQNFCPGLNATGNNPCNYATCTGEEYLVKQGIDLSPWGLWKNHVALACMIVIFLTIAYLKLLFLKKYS

[4] = target: T4, Solute carrier organic anion transporter family member 1A2 (Homo sapiens, UniProt P46721); assay: Substrates of transporters of clinical importance in the absorption and disposition of drugs, OATP1A2
T4 sequence (P46721 whole entry): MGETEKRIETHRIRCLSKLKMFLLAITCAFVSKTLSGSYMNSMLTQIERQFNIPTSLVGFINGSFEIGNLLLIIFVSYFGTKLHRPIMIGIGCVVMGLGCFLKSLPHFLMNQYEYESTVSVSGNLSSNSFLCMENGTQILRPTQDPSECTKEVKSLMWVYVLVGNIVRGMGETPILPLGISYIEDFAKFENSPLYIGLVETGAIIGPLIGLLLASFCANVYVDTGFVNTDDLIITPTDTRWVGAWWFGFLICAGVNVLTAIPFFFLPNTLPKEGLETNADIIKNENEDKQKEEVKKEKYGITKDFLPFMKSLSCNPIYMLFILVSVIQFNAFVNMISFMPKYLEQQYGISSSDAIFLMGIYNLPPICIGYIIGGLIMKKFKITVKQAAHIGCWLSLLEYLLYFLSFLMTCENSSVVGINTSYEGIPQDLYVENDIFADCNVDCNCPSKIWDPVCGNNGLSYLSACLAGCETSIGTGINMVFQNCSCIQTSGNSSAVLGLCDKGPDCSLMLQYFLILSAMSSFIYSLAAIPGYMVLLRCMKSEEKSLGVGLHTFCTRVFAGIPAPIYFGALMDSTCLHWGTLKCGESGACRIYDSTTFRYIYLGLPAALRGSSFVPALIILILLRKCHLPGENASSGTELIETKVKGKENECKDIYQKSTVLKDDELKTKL

[5] = target: T5, ATP-binding cassette sub-family C member 4 (Homo sapiens, UniProt O15439); assay: Substrates of transporters of clinical importance in the absorption and disposition of drugs, MRP4
T5 sequence (O15439 whole entry): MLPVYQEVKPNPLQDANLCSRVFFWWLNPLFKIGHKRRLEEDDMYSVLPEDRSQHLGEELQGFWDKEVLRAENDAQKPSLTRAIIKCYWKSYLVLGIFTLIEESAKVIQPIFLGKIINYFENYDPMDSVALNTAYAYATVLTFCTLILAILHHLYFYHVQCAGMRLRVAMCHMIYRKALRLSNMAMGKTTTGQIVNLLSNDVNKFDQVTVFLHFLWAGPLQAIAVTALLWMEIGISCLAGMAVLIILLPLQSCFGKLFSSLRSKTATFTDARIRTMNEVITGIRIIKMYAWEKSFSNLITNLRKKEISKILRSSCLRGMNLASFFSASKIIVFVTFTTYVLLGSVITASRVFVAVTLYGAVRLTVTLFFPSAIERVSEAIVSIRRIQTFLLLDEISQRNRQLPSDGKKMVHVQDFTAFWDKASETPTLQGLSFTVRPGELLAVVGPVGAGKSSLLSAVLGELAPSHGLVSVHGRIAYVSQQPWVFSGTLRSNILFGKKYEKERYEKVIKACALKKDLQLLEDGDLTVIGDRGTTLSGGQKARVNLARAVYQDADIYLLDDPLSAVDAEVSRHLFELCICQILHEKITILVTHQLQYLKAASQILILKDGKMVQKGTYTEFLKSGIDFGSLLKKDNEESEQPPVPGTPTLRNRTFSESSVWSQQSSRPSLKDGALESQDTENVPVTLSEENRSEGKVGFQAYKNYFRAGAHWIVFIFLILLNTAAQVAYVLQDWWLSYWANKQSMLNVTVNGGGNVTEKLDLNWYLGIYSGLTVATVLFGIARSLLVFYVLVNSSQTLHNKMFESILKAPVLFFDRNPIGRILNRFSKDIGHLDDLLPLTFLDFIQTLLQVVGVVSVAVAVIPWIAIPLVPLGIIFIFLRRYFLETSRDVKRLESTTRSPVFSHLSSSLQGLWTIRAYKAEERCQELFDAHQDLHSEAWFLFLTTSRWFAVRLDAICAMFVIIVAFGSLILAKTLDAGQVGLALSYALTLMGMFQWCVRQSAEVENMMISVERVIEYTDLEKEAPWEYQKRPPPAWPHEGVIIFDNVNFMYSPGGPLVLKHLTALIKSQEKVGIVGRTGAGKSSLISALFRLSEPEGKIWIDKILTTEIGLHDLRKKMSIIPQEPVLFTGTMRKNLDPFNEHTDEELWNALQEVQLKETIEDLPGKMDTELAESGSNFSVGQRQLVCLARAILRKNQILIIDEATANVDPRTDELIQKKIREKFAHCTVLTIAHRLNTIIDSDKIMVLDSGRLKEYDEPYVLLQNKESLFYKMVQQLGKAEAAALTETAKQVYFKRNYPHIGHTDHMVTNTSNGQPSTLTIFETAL

[6] = target: T2, ATP-binding cassette sub-family C member 2; assay: Substrates of transporters of clinical importance in the absorption and disposition of drugs, MRP2
[7] = target: T3, Broad substrate specificity ATP-binding cassette transporter ABCG2; assay: Substrates of transporters of clinical importance in the absorption and disposition of drugs, BCRP
[8] = target: T1, ATP-binding cassette sub-family C member 3; assay: Substrates of transporters of clinical importance in the absorption and disposition of drugs, MPR3
[9] = target: T6, Solute carrier organic anion transporter family member 1B1 (Homo sapiens, UniProt Q9Y6L6); assay: Substrates of transporters of clinical importance in the absorption and disposition of drugs, OATP1B1
T6 sequence (Q9Y6L6 whole entry): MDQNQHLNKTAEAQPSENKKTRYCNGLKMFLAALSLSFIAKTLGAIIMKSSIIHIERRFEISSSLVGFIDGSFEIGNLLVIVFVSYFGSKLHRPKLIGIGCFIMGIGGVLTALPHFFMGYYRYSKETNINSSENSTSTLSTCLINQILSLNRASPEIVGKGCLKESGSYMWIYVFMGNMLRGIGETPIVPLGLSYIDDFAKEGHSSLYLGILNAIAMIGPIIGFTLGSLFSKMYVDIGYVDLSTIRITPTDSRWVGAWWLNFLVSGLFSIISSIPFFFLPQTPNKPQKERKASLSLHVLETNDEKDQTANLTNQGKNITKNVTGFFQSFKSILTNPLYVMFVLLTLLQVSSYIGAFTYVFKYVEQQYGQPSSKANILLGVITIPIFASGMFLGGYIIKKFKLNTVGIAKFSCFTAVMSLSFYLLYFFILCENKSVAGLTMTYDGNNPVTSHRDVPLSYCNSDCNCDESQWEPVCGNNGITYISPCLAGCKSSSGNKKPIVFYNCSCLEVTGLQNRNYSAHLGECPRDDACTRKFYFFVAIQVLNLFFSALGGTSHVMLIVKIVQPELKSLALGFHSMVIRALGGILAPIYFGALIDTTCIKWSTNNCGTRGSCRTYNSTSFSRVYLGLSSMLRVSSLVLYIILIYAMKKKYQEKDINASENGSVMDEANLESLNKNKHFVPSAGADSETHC

[10] = target: T7, Solute carrier organic anion transporter family member 1B3 (Homo sapiens, UniProt Q9NPD5); assay: Substrates of transporters of clinical importance in the absorption and disposition of drugs, OATP1B3
T7 sequence (Q9NPD5 whole entry): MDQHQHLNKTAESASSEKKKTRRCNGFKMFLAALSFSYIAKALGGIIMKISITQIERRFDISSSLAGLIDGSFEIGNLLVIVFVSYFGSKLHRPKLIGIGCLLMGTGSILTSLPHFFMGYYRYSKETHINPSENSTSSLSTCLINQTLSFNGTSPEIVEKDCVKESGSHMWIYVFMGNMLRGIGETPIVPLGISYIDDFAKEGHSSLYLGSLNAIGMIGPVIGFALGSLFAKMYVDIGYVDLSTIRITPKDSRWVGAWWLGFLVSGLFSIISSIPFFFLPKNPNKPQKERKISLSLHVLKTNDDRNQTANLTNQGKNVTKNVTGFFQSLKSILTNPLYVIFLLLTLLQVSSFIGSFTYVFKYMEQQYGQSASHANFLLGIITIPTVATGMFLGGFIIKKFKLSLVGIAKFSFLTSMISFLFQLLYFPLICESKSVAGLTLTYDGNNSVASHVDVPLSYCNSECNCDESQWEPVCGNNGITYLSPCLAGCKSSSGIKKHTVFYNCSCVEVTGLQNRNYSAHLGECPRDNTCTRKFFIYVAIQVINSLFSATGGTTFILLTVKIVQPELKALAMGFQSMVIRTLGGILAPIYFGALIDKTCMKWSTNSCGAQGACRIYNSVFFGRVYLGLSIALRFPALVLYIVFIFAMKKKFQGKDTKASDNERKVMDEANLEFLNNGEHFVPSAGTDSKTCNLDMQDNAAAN

[11] = target: T8, Solute carrier organic anion transporter family member 2B1 (Homo sapiens, UniProt O94956); assay: Substrates of transporters of clinical importance in the absorption and disposition of drugs, OATP2B1
T8 sequence (O94956 whole entry): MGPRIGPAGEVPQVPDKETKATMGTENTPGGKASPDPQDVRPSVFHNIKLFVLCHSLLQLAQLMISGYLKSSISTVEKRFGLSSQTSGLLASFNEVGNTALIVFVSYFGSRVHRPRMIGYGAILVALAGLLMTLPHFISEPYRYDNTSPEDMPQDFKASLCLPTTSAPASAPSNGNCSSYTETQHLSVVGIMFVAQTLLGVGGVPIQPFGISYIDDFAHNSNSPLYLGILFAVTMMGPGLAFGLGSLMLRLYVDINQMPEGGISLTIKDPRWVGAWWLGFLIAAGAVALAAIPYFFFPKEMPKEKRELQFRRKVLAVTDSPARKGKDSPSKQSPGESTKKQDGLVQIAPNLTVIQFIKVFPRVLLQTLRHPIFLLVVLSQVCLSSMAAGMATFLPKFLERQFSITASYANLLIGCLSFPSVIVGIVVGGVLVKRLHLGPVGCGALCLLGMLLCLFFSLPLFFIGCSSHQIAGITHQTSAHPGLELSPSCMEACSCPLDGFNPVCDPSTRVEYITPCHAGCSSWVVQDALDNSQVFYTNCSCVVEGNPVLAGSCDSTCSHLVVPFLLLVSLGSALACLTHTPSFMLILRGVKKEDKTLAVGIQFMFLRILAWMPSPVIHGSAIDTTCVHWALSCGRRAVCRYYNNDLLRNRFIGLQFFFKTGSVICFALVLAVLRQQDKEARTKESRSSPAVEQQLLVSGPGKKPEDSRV

[12] = target: T4, Solute carrier organic anion transporter family member 1A2; assay: Inhibitors of transporters of clinical importance in the absorption and disposition of drugs, OATP1A2
[13] = target: T6, Solute carrier organic anion transporter family member 1B1; assay: Inhibitors of transporters of clinical importance in the absorption and disposition of drugs, OATP1B1

T2 sequence (Q92887 whole entry): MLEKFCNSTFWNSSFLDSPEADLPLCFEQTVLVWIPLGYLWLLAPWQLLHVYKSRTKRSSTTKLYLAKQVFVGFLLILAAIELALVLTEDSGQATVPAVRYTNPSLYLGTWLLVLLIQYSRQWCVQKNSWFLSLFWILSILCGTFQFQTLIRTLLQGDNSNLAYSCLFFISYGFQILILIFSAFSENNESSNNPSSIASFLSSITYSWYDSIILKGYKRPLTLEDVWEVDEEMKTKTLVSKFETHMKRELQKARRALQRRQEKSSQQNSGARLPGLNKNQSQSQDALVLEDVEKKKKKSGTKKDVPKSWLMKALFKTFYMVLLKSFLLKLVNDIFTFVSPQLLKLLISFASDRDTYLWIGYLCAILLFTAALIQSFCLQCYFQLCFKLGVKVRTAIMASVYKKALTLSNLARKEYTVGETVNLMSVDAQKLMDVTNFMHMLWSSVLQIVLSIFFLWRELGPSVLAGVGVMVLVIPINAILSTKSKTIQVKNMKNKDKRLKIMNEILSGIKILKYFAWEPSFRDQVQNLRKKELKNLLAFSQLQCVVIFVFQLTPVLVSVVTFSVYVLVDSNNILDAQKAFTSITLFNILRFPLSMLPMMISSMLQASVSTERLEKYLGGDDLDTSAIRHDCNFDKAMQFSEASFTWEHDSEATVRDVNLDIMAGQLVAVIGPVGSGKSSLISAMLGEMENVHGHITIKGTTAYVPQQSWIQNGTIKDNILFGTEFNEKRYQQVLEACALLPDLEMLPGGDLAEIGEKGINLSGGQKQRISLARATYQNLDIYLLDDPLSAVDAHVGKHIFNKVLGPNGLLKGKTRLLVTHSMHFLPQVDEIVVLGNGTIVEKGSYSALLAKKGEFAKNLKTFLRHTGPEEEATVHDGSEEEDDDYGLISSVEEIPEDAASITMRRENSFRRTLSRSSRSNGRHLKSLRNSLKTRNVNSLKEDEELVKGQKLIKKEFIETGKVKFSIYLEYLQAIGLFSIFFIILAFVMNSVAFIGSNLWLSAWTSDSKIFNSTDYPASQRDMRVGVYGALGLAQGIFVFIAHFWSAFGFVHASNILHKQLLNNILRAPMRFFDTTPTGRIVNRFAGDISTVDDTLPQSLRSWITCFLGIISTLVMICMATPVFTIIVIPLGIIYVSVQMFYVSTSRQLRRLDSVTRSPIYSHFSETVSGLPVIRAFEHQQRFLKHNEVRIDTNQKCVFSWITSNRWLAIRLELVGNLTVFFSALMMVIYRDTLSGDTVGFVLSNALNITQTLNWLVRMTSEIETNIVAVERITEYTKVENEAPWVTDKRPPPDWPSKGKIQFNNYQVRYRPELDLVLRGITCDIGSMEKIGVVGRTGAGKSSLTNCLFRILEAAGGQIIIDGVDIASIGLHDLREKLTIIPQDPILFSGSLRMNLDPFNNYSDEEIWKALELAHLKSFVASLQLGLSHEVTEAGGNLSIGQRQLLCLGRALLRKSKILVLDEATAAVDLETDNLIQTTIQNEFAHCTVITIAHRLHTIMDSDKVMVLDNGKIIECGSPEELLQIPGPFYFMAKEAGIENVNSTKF
T1 sequence (O15438 whole entry): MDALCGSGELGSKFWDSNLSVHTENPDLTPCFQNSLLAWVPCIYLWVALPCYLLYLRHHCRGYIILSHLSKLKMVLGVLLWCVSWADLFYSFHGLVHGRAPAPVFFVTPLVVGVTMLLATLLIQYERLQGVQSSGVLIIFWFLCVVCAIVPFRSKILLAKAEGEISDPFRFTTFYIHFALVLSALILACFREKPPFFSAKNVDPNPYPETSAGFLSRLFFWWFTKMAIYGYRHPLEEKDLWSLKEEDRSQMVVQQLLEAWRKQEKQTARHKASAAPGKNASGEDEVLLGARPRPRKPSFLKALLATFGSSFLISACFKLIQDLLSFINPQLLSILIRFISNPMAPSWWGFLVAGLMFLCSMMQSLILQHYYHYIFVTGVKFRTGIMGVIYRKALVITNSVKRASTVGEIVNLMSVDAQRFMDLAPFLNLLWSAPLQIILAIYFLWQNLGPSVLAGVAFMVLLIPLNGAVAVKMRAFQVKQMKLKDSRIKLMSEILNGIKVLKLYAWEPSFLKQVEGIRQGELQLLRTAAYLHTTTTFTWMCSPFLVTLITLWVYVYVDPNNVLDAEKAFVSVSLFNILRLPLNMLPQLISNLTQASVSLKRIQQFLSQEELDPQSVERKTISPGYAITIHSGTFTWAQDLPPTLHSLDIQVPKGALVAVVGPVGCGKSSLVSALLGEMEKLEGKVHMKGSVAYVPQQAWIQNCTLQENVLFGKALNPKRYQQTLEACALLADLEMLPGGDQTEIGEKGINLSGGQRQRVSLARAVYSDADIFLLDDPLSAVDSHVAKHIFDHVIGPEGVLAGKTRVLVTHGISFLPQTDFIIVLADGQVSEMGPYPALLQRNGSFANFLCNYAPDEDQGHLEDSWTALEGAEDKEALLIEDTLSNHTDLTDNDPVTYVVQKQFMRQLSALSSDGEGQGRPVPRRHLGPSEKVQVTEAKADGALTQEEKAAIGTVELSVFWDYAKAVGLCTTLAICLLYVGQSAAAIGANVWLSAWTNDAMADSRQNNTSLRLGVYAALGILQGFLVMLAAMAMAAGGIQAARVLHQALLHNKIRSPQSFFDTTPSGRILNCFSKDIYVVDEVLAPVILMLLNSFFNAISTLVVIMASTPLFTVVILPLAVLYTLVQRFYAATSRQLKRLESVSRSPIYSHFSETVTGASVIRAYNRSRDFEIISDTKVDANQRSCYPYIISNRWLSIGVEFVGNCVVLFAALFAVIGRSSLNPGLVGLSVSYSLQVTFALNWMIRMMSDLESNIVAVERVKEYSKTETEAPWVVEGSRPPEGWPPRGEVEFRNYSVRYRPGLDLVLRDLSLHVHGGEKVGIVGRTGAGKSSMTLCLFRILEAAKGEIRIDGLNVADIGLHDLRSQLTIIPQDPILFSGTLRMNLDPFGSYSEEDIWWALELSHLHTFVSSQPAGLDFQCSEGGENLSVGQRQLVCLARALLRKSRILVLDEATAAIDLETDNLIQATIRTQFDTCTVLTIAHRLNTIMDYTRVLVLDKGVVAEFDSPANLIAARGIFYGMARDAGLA

In the case of `O=C1Nc2ccc(Cl)cc2[C@@](C#CC2CC2)(C(F)(F)F)O1` [EFAVIRENZ], the Activity [1] is reported as “transporter inhibitor” and the Activity [2] is reported as “transporter inhibitor”.
For `C[C@]12CC[C@@H]3c4ccc(O)cc4CC[C@H]3[C@@H]1CCC2=O` [ESTRONE], the Activity [3] was “transporter inhibitor”.
For `CN(Cc1cnc2nc(N)nc(N)c2n1)c1ccc(C(=O)N[C@@H](CCC(=O)O)C(=O)O)cc1` [METHOTREXATE], the Activity [4] was “transporter substrate”, the Activity [5] was “transporter substrate” and the Activity [6] was “transporter substrate”. For the same compound, the Activity [7] was “transporter substrate” and the Activity [8] was “transporter substrate”.
`C[C@]12CC[C@@H]3c4ccc(O)cc4CC[C@H]3[C@@H]1CC[C@@H]2O[C@@H]1O[C@H](C(=O)O)[C@@H](O)[C@H](O)[C@H]1O` [ESTRADIOL 17B GLUCURONIDE] was tested, and the Activity [9] was “transporter substrate”, the Activity [10] was “transporter substrate” and the Activity [8] was “transporter substrate”.
With `C[C@]12CC[C@@H]3c4ccc(O)cc4CC[C@H]3[C@@H]1CC[C@@H]2O` [ESTRADIOL] the Activity [3] was “transporter inhibitor”.
For `COc1ccc2c3c([nH]c2c1)[C@H](C=C(C)C)N1C(=O)[C@@H]2CCCN2C(=O)[C@@H]1C3` [FUMITREMORGIN], the Activity [3] was “transporter inhibitor”.
For `Nc1nc(=O)n([C@@H]2CS[C@H](CO)O2)cc1F` [EMTRICITABINE], the Activity [1] was “transporter inhibitor” and the Activity [2] was “transporter inhibitor”.
With `CC(C)(C(=O)O)c1ccc(C(O)CCCN2CCC(C(O)(c3ccccc3)c3ccccc3)CC2)cc1` (stereo unspecified) [FEXOFENADINE] the Activity [4] was “transporter substrate”, the Activity [10] was “transporter substrate” and the Activity [11] was “transporter substrate”. For the same compound, the Activity [8] was “transporter substrate”.
For `CC(C)(C)NC(=O)[C@@H]1C[C@@H]2CCCC[C@@H]2CN1C[C@@H](O)[C@H](Cc1ccccc1)NC(=O)[C@H](CC(N)=O)NC(=O)c1ccc2ccccc2n1`, the Activity [12] was “transporter inhibitor” and the Activity [13] was “transporter inhibitor”.
